One molecule from patent US20090258836A1, “EFFECTIVE DELIVERY OF CROSS-SPECIES A3 ADENOSINE-RECEPTOR ANTAGONISTS TO REDUCE INTRAOCULAR PRESSURE” (The Trustees of The University of Pennsylvania, priority 2006, published 2009) can be followed below.

SMILES strings stand for the structures.

One assay has as its target T1, rat A3 receptors (Rattus norvegicus, UniProt P28647).
T1 construct: expressed in transfected cells; host or cells: CHO cells (stably transfected)
T1 sequence (P28647 1-320): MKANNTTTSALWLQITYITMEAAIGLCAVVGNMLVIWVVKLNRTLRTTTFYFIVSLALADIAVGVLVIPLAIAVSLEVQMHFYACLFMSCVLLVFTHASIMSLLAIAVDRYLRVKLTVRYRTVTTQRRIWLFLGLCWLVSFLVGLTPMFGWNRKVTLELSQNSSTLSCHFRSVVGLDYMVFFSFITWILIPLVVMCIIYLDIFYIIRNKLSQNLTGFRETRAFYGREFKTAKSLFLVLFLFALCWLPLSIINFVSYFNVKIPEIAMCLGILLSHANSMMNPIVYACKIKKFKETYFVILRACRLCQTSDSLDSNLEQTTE
Nature of the assay: Radioligand binding, [125I]AB-MECA, CHO cells. As to conditions: means±SEM, N=3-4.

In assay [1] the test system is mouse IOP. Nature of the assay: Mouse IOP after topical application, invasive servo-null micropipette system (SNMS). The class given is in vivo, Black Swiss mice. As to conditions: endpoint 10 min. In short, it runs like this: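 Black Swiss outbred mice, 7-9 weeks, under i.p. ketamine plus topical proparacaine. Drugs applied topically as droplets with <2% DMSO (none for hydrophilic compounds) and 0.0005% benzalkonium chloride, 295-300 mOsm. IOP measured invasively by servo-null micropipette 10 min after a single application.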

Assay [2] has as its system mouse IOP. Nature of the assay: Mouse IOP after topical application, non-invasive pneumotonometry. Format: in vivo, Black Swiss mice. In short, it runs like this: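 Black Swiss outbred mice (7-9 weeks, mixed sex) under intraperitoneal ketamine plus topical proparacaine 0.5%. Drugs applied topically as […] droplets three times, containing <2% DMSO and 0.0005% benzalkonium chloride; IOP measured non-invasively by pneumotonometry at 10-min intervals from a stereotactically fixed probe position.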

Assay [3] concerns the target T2, human A2B adenosine receptor (Homo sapiens, UniProt P29275).
T2 construct: expressed in transfected cells; host or cells: CHO cells (stably transfected)
T2 sequence (P29275 1-332): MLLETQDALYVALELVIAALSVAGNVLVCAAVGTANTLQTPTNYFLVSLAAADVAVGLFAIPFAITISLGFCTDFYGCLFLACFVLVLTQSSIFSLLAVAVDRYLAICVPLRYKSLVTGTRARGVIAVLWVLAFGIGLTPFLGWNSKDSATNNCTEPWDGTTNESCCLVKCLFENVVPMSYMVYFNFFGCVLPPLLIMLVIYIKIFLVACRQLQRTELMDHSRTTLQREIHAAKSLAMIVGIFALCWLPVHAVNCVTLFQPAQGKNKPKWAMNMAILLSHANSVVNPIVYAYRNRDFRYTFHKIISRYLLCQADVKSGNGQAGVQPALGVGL
Nature of the assay: Potency at human A2B adenosine receptor. Format: binding. As to conditions: at 10 μM.

Take `OC1CSC(n2cnc3c(NCc4cccc(I)c4)nc(Cl)nc32)C1O` (stereo not shown) [MRS-3820, 2-(2-chloro-6-(3-iodobenzylamino)-9H-purin-9-yl)tetrahydrothiophene-3,4-diol]: the Ki at rat A3 receptors turned out to be 3.9 ± 1.2 nM. Besides, the “Δ(IOP) Servo-Null” value is on record as −2.2 ± 0.7 mm Hg in the assay on mouse IOP [1] (topical droplet 5 μM (0.2% DMSO)), −4.9 ± 1.7 mm Hg in the assay with mouse IOP [1] (topical droplet 25 μM (0.2% DMSO)), −3.1 ± 1.4 mm Hg in the assay with mouse IOP [1] (topical droplet 75 μM (0.6% DMSO)) and −1.5 ± 0.6 mm Hg with mouse IOP [1] (topical droplet 250 μM (2% DMSO)). The “time to significant reduction of non-invasively measured IOP” value with mouse IOP [2] (250 μM droplet) is not above 20 min. Moreover, the “reduction in IOP 30 minutes post-administration” value in the assay with mouse IOP [2] (250 μM droplet, normal mice, non-invasive, baseline 16.7±1.1) amounted to 4.2±0.7 mmHg. Further, in the assay with mouse IOP [2] (250 μM, non-invasive), the “reduction in IOP 20 min following application” value was found to be 3.4±0.7 mm Hg. In addition, in the assay on mouse IOP [2] (topical droplets 25 μM (0.2% DMSO), 30 min), the “Δ(IOP) Pneumotonometer” value is −0.6 ± 1.5 mm Hg. Besides, the “potency at A2B” value in assay [3] is less than 10%.

The Ki is the dissociation constant of the complex between target and ligand, obtained from inhibition or displacement. Read a high Ki as lower affinity.
